From ChEMBL document CHEMBL1629535, “Novel small molecule inhibitors of MDR Mycobacterium tuberculosis by NMR fragment screening of antigen 85C” (2010)
≈ marks a conversion by molar mass, not a printed value. Calls of active or inactive are those of the source. No cut-off for these calls is given here.

Key:
[1] = target: Diacylglycerol acyltransferase/mycolyltransferase Ag85C (Mycobacterium tuberculosis) (UniProt P9WQN9); assay: Binding affinity to substrate binding site of multidrug resistance Mycobacterium tuberculosis antigen 85C by NMR assay
[2] = tested on: Mycobacterium tuberculosis; assay: Growth inhibition of multidrug resistance Mycobacterium tuberculosis 2745/09; type: functional

Diacylglycerol acyltransferase/mycolyltransferase Ag85C (Mycobacterium tuberculosis), sequence (P9WQN9 whole entry): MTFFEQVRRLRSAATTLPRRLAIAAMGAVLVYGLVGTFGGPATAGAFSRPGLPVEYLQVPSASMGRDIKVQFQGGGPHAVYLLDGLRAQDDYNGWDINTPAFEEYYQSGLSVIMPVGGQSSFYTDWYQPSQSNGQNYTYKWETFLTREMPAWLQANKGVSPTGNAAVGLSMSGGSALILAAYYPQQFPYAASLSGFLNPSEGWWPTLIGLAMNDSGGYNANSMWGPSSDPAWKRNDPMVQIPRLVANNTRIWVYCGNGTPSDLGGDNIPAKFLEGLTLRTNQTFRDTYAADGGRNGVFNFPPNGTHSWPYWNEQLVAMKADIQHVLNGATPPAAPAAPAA

SMILES	Activity [1]	MIC [2] [µg/mL]
O=c1[nH]c(-c2ccncc2)nc2sc3c(c12)CCCC3	inactive	
CCCC1CCc2c(sc(N)c2C(N)=O)C1 (stereo not drawn)	Active	
CCN1CCc2c(sc(N)c2C#N)C1	inactive	
CC1CCc2c(sc(N)c2C#N)C1 (stereo not drawn)	Active	
CC(=O)Nc1sc2c(c1C#N)CCCC2	inactive	
CC(C)C(=O)Nc1sc2c(c1C#N)CCCC2	inactive	
N#Cc1c(N)sc2c1CCCC2	Active	
CCCC1CCc2c(sc(N)c2C#N)C1 (stereo not drawn)	Active	50 (≈ 227 µM)
N#Cc1c(N)sc2c1C1CCN2CC1	inactive	
CCOC(=O)c1c(N)sc2c1C(C)CCC2 (stereo not drawn)	Active	
CC1CCc2c(sc(N)c2C(N)=O)C1 (stereo not drawn)	Active	
CCC1CCc2c(sc(N)c2C#N)C1 (stereo not drawn)	Active	50 (≈ 242 µM)
CC(=O)c1c(N)sc2c1CCCC2	Active	
Nc1sc2c(c1C(=O)NCc1ccccc1)CCCC2	inactive	
CCC1(C)Cc2c(sc(N)c2C#N)CO1 (stereo not drawn)	inactive	
CCCOc1ccc2nc(N)sc2c1		20 (≈ 96 µM)
N#Cc1c(N)sc2c1CCCCC2	Active	500 (≈ 2600 µM)
CC1(C)Cc2c(sc(N)c2C#N)CO1	inactive	
CCC1CCc2c(sc(N)c2C(N)=O)C1 (stereo not drawn)	Active	
COC(=O)c1c(N)sc2c1CCCC2	Active	
